Reference: patent publication US20140140929A1, “CHEMICALLY MODIFIED CELL-PENETRATING PEPTIDES FOR IMPROVED DELIVERY OF GENE MODULATING COMPOUNDS” (priority 2008, published 2014)

Legend:
[1] = system: luciferase in BHK21 cells; assay: siRNA treatment, luciferase down-regulation in luciferase-stable BHK21 cells; type: cell-based
Method: Phosphorothioate 2′O methyl RNA (SCO) or anti-miR21 2′OMe RNA (with 33% LNA substitution) was mixed with CPPs at different molar ratios (1:0-1:20) in MQ water in 1/10th of the final treatment volume (i.e 50 μl). Complexes were formed for 30 min in RT and meanwhile media was replaced in 24-well plates to fresh serum free DMEM (450 μl). Thereafter, complexes were added to each well. The final concentration of SCO was kept constant at 200 nM and peptide concentration was varied or complexes were formed at a given molar ratio using 400 nM SCO and then serial diluted in water. Complexes were prepared according to manufacturers protocol when using the commercial transfection reagent Lipofectamine 2000 (Promega, USA). […] Lower concentrations were generated by doing serial dilutions.
siRNA transfections: Different luciferase-stable cell lines including HeLa, BHK21, and U2OS cells were seeded as in the other experiments. Cells were treated for 4 h in serum-free or full growth media after which 1 ml of full growth media was added to the wells. Cells were lysed and measured for luminescence 20 h later as described previously. The luminescence was normalized to protein content in each well and the RLU/mg value from untreated cells were considered as 100%. Different treatments are then presented as % of untreated cells.

EGFP in CHO cells = assay: siRNA treatment, EGFP down-regulation in EGFP stable CHO cells (FACS, confocal microscopy); type: cell-based
Method: A 24-well plate with EGFP-stable CHO cells were seeded one day prior transfection. On the day of transfection, transfect the cells with PF6-siRNA complexes, molar ratios between siRNA:PF6 a) for serum free media incubations: 1:20 and 1:40 with siRNA concentrations 50 nM, 25 nM and 12.5 nM; nd 1:80 with siRNA concentrations 20 nM, 10 nM and 5 nM. b) for full media incubations: 1:20 and 1:40 with siRNA concentrations 100 nM, 50 nM and 25 nM. For control experiments the cells were transfected with EGFP siRNA using Lipofectamine (100 nM siRNA and 2.8 ul of Lipofectamine), or mock transfected without complexes or only with siRNA (to get native EGFP levels). The incubation vol. during transfections was 500 ul. Incubate the cells with the complexes in serum free media or in full media, as required, for 4 hours. Then add 1 ml of full media into each well and let the cells grow for 24 (or, alternatively, for 48 hours).
On the day of measurement, wash the cells with PBS, and detach from the wells by trypsination. Use 125 ul trypsin solution. After the cells have detached, add 500 ul full media and transfer the cells into eppendorf tubes. Centrifuge at 500×g for 10 min, remove supernatant and resuspend in 500 ul of PBS supplemented with 2% FBS (this FBS is quite important, keeps the cells in better shape when the tubes are waiting to be analyzed). Transfer the cell suspensions info FACS tubes and put them on ice. Analyze as soon as possible. Measure the cell suspensions in FACS. Gate the living cell population on FSC-SSC plot. On the FSC/FITC-A or SSC/FITC-A plot find the gates for moctransfected cells (gate/cloud for cells with native EGFP levels). Run the samples using the same gates. All the cells falling out from the cloud with native EGFP-levels and having lower EGFP levels will be counted as cells where the siRNA transfection has taken place. Present the results as % of cells transfected with siRNA. Alternatively, choose the gates in a similar way based on mock-transfected cells using FITC-A histogram graph.

TACE in SHSY5Y cells = assay: siRNA treatment, TACE in SHSY5Y cells; type: cell-based, human; details: target TACE
Method: (§1) Phosphorothioate 2′O methyl RNA (SCO) or anti-miR21 2′OMe RNA (with 33% LNA substitution) was mixed with CPPs at different molar ratios (1:0-1:20) in MQ water in 1/10th of the final treatment volume (i.e 50 μl). Complexes were formed for 30 min in RT and meanwhile media was replaced in 24-well plates to fresh serum free DMEM (450 μl). Thereafter, complexes were added to each well. The final concentration of SCO was kept constant at 200 nM and peptide concentration was varied or complexes were formed at a given molar ratio using 400 nM SCO and then serial diluted in water. Complexes were prepared according to manufacturers protocol when using the commercial transfection reagent Lipofectamine 2000 (Promega, USA). PepFect/siRNA complexes were essentially formed in a similar manner but using 100 nM siRNA as starting concentrations and molar ratios ranging from 20-40. Lower concentrations were generated by doing serial dilutions.

HPRT1 in B16 cells = assay: siRNA treatment, HPRT1 in B16 cells; type: cell-based; details: B16, target HPRT1
Method: as §1

HPRT1 in Jurkat cells = assay: siRNA treatment, HPRT1 in Jurkat cells; type: cell-based; details: target HPRT1
Method: as §1

Jurkat suspension cells = assay: Transfection of EGFP plasmids in Jurkat suspension cells (FACS); type: cell-based; details: 24 h, serum free media
Method: EGFP expression was assessed 24 h after transfection in serum free media by FACS. b) Histogram of corresponding Jurkat transfection. Although the overall transfection levels are rather low, PF6 has the ability to transfect a large fraction of cells in the population. c) Jurkat plasmid transfection not dependent on cell confluenncy. Intriguingly, with PF6 it is possible to transfect the majority of cells independent of confluency.
Formation of plasmid/CPP complexes: 0.5 μg of pGL3 luciferase expressing plasmid or pEGFP-C1 plasmid was mixed with CPPs at different charge ratios (1:1-1:4) in MQ water in 1/10th of the final treatment volume (50 μl). After 30 min, complexes were added to cells grown in 450 μl of fresh serum free media. When using Lipofectamine 2000, complexes were prepared according to manufacturers protocol (Promega, USA).
Plasmid transfections: For plasmid transfection, 80 000 CHO or Jurkat cells were seeded 24 h before treatment. Cells were treated for 4 h with pGL3/CPP complexes in serum free DMEMF12 after which media was replaced for full growth media for additionally 20 h. Cells were lysed and analyzed in accordance with the splice correction assay.

[2] = siRNA concentration, Bhk21, target Luciferase
[3] = siRNA concentration, CHO, target EGFP

Q: What does the source list for “Stearyl-AGYLLGK[KK2sa4qn4]INLKALAALAKKIL-NH2 [Pepfect 6]”?
A: down-regulation of luciferase ([1]; 50 nM siRNA, MR 10, 24 h treatment): more than 80%; Compared to Lipofectamine ([1]; Bhk21, target Luciferase): better; luciferase expression, dose-response in words ([1]; full growth media, 24 h after transfection): dose-dependent decrease in luciferase expression; 70% inhibition [1, 2]: 2.5 to 5 nM; 90% inhibition [1, 2]: 5 to 20 nM; efficacy to convey siRNA targeting luciferase, PF6 versus PF5 ([1]; two molar ratios, low siRNA concentration): superior to PF5; cells with lower expression of EGFP (EGFP in CHO cells; 25 nM siRNA, molar ratio 40, FACS): 90-95%; RNAi by confocal microscopy (EGFP in CHO cells; 50 nM siRNA, 48 h, serum free media and complete growth media): complete RNAi; cells with negligible EGFP expression (EGFP in CHO cells; 100 nM siRNA, full serum media, 48 h after treatment, FACS): approximately 98%; Compared to Lipofectamine (EGFP in CHO cells; CHO, target EGFP): better; RNAi after 24 h, result in words (EGFP in CHO cells; independent on siRNA concentration, serum or serum free media, flow cytometry): almost complete RNAi; 70% inhibition (EGFP in CHO cells; [3]): 10 nM; 90% inhibition (EGFP in CHO cells; [3]): 20 to 25 nM; persistence of RNAi response (EGFP in CHO cells; single siRNA treatment, optimal conditions): 4 to 5 days; 90% inhibition (TACE in SHSY5Y cells; siRNA concentration): 50 to 70 nM; Compared to Lipofectamine (TACE in SHSY5Y cells): superior; Compared to Lipofectamine (HPRT1 in B16 cells): better; 90% inhibition (HPRT1 in B16 cells; siRNA concentration): 25 to 50 nM; 90% inhibition (HPRT1 in Jurkat cells; siRNA concentration): 100 nM; Compared to Lipofectamine (HPRT1 in Jurkat cells): superior; EGFP plasmid transfection, result in words (Jurkat suspension cells): significant transfections
